In brackets after ≈: the same amount, converted by molar mass.
Columns and labels:
[1] = test system: MDA-MB-231 (mammary gland adenocarcinoma); experiment: CIMA assay (MTT, 72 h); type: cell-based, human; conditions: Homo sapiens, MDA-MB-231
Description: Experimental: Stock solutions of the test compounds were prepared in dimethylsulfoxide (DMSO) at 10 mg/ml and stored at −20° C. until used. This preparation ensures that the DMSO content delivered to cells in culture never exceeds 1%. […] Cell proliferation was initially assessed using a standard colorimetric indicator of metabolic activity (CIMA) assay. In this assay, reduction of yellow tetrazolium salt (MTT) to purple formazan by mitochondrial reductases enzymes in viable cells were measured as change in absorbance (λ=500-600).
Seven human cell lines were evaluated: U373 (glioblastoma-astrocytoma), A549 (lung carcinoma), PC3 (prostate adenocarcinoma), THP1 (acute monocytic leukemia), MDA-MB-231 (mammary gland adenocarcinoma), SKOV3 (ovarian adenocarcinoma) and CCD1079Sk (normal skin fibroblast) cells.

[2] = test system: MDA-MB-231 human breast cancer cells; experiment: Murine flank tumor model, pure compound (II): tumor volume and weight; type: in vivo, nude mice (strain J:NU); conditions: for Tumour weight (mg) ± SEM, extracted at necropsy: intraperitoneal every second day, 4 weeks
Description: Animal studies were conducted under ACC protocol #17-020 and Biosafety protocol #6007077 approved by the Atlantic Veterinary College (AVC, UPEI). Briefly, homozygous outbred nude mice (strain J:NU, 4-weeks old, female) suitable as immunodeficient tumor transplant hosts were procured from a commercial supplier (Jackson Labs, Maine, USA) and acclimatized in a barrier facility (AVC, UPEI) for one week.
To establish the tumors, MDA-MB-231 human breast cancer cells were cultured in vitro and harvested when they were between 60 to 80% confluent. Under anesthetized conditions, each the mouse was injected subcutaneously into both right and left flanks with […] (50:50 in matrigel:DMEM). Tumors development was monitored over a 2-week period. At 2 weeks, tumor established mice (tumor volume ˜20 mm^3) were selected and randomly grouped based on the tumor volume and body weight into ten mice per group as follows: • Group 1: Vehicle control (VC, DMSO 2%, Kholliphor EL 2%) • Group 2: Compound (II), 10 mg/kg body weight • Group 3: Compound (II), 5 mg/kg body weight
Seaweed extract was dissolved in molecular grade DMSO, liquid emulsion was prepared in Kholliphor EL (Sigma, USA) and the final injectable solution was prepared using sterile normal saline.
Mice with established tumors were treated every second day by intraperitoneal injections of test extracts over a 4-week time course. From each group a minimum of 16 tumors were selected for analysis. Tumors were measured weekly using external calipers and volumes established using the modified ellipsoidal formula: tumor volume=0.5 (length×width^2).
In addition, body weights and general animal health were assessed twice weekly during the treatment period. At study termination, mice were sacrificed, and tumors excised from the flank. To evaluate tumor metastasis, an explorative necropsy was conducted in each mouse and the presence and frequency of additional tumors at sites distal to the flank were assessed. Tumor tissue from the flank region was collected and preserved in 10% neutral buffered formalin for histology. Variance within each of the treatment groups to vehicle control was assessed over the four-week time course by one-way ANOVA.

[3] = Murine flank tumour model, synthesized compound (II) (DHODO): body weights; type: in vivo, nude mice (strain J:NU)
Description: To establish the tumours, MDA-MB-231 breast cancer cells (2.5 million cells in 100 pl 50:50 matrigel:DMEM) were injected subcutaneously into both right and left flanks. Tumours were evaluated over a 2-week period until sufficient volume growth (approximately 20 mm3) for subsequent analysis had occurred. During this period, body weights were measured twice weekly. Mice with established tumours were treated every second day by intraperitoneal injections of test compounds over a 4-week time course. From each group a minimum of 15 tumours were selected for analysis. Tumours were measured weekly using external calipers and volumes established using the modified ellipsoidal formula: tumour volume=0.5 (length×width2). In addition, body weights and general animal health were assessed twice weekly during the treatment period. At study termination, mice were sacrificed and tumours excised from the flank was weighed. To evaluate tumour metastasis, an explorative necropsy was conducted in each mouse and the presence and frequency of additional tumours at sites distal to the flank were assessed.

CCCCC[C@H](O)[C@H](O)/C=C/[C@@H]1CCCCCCCC(=O)O1 [compound (II), 12R, 13S-Dihydroxy-10-Octadecen-9S-olide]
viability at 1 µg/mL ([1]; MDA-MB, 1 ug/mL, read-out: average cell viability): 101% | viability at 10 µg/mL ([1]; MDA-MB, 10 ug/mL, read-out: average cell viability): 96% | viability at 50 µg/mL ([1]; MDA-MB, 50 ug/mL, read-out: average cell viability): 66% | viability at 100 µg/mL ([1]; MDA-MB, 100 ug/mL, read-out: average cell viability): 20% | IC50 ([1]; 72 h): 34.3 µg/mL (≈ 110 µM) | Tumour volumes ± SEM ([2]; 5 mg/kg b. wt. i.p. every second day, Week 0): 26.94 ± 1.98 mm^3 | Tumour volumes ± SEM ([2]; 5 mg/kg b. wt. i.p. every second day, Week 1): 20.83 ± 2.20 mm^3 | Tumour volumes ± SEM ([2]; 5 mg/kg b. wt. i.p. every second day, Week 2): 17.38 ± 2.04*¶ mm^3 | Tumour volumes ± SEM ([2]; 5 mg/kg b. wt. i.p. every second day, Week 3): 17.23 ± 3.18*¶ mm^3 | Tumour volumes ± SEM ([2]; 5 mg/kg b. wt. i.p. every second day, Week 4): 28.01 ± 3.61*¶ mm^3 | Tumour weight (mg) ± SEM, extracted at necropsy ([2]; 5 mg/kg b.wt.): 34.64 ± 15.78 mg | Tumour volumes ± SEM ([2]; 10 mg/kg b. wt. i.p. every second day, Week 0): 27.09 ± 1.60 mm^3 | Tumour volumes ± SEM ([2]; 10 mg/kg b. wt. i.p. every second day, Week 1): 24.06 ± 1.98 mm^3 | Tumour volumes ± SEM ([2]; 10 mg/kg b. wt. i.p. every second day, Week 2): 17.40 ± 2.88*¶ mm^3 | Tumour volumes ± SEM ([2]; 10 mg/kg b. wt. i.p. every second day, Week 3): 18.95 ± 5.34*¶ mm^3 | Tumour volumes ± SEM ([2]; 10 mg/kg b. wt. i.p. every second day, Week 4): 28.37 ± 9.37*¶ mm^3 | Tumour weight (mg) ± SEM, extracted at necropsy ([2]; 10 mg/kg b.wt.): 27.29 ± 8.07 mg | tumor volume at the end of 4-weeks (average) ([2]; 5 and 10 mg/kg, controls rose from 26 to 73 mm^3): ~27 mm^3 | change in tumor size during the 4-week study ([2]; both tested concentrations (5 and 10 mg/kg)): no significant change in tumor size | Body weight change Δ over the four-week trial ([3]; 1 mg/kg): 0.6 g | Body weight ([3]; 1 mg/kg, Week 1): 21.9 g | Body weight ([3]; 1 mg/kg, Week 2): 22.5 g | Body weight ([3]; 1 mg/kg, Week 3): 22.1 g | Body weight ([3]; 1 mg/kg, Week 4): 22.5 g | Body weight change Δ over the four-week trial ([3]; 5 mg/kg): 0.9 g | Body weight ([3]; 5 mg/kg, Week 1): 23.8 g | Body weight ([3]; 5 mg/kg, Week 2): 24.8 g | Body weight ([3]; 5 mg/kg, Week 3): 24.3 g | Body weight ([3]; 5 mg/kg, Week 4): 24.9 g | Body weight change Δ over the four-week trial ([3]; 10 mg/kg): 0.8 g | Body weight ([3]; 10 mg/kg, Week 1): 24.2 g | Body weight ([3]; 10 mg/kg, Week 2): 24.8 g | Body weight ([3]; 10 mg/kg, Week 3): 24.3 g | Body weight ([3]; 10 mg/kg, Week 4): 25.0 g

Source: patent US20210323940A1 (OCEANS LTD., priority 2018, published 2021)
